Laboratory results: patent US8598339B2, “Withanolide isolated from Physalis longifolia and analogs and methods of use thereof” (University of Kansas, priority 2011, dated 2013)

What was measured:
Type in all cases: cell-based
melanoma cells B16F10 = experiment: MTS cell viability assay, B16F10; conditions: Mus musculus
Procedure: (§1) Human carcinoid cells, NCI-H727 (ATCC, Manassas, Va.), were cultured under standard conditions. Squamous cell carcinoma of head and neck cells, MDA1986 (Myers, et al. (2002) Clin. Cancer Res. 8:293) and JMAR (Swan, et al. (2003) Oral Oncol. 39:648-55); and melanoma cells lines B16F10 (ATCC, Manassas, Va.) and SKMEL28 (CLS, Eppelheim, Germany) were cultured in DMEM medium supplemented with 10% heat-inactivated fetal bovine serum (Sigma-Aldrich, St. Louis, Mo.), 1×MEM-essential amino acid, 1×MEM vitamin, and penicillin/streptomycin (Sigma-Aldrich, St. Louis, Mo.) in a humid environment of 5% CO2 at 37° C. Activity of withanolides against DRO81-1 and TT medullary thyroid cancer cells was also determined.
(§2) Cells were cultured in 96 well plates at a concentration of 1-2×10^4 cells/mL. Cell viability was assessed with the nonradioactive cell proliferation MTS assay using Cell Titer 96AQUEOUS One Solution Reagent (PROMEGA, Madison, Wis.), according to the manufacturer's instruction. After a 72-hour treatment, 20 μL of Cell Titer 96AQUEOUS One Solution Reagent were added to each well and incubated for 3 hours at 37° C. 5% CO2, and formazan absorbance was measured at 490 nm.

[1] = system: human melanoma SKMEL28 cells; experiment: MTS cell viability assay, SKMEL28; conditions: Homo sapiens; for IC50: SK-MEL-28, 72 h
Procedure: as §1, §2
A cell viability MTS assay was carried out to determine the anti-cancer effect of the withanolides on human melanoma SKMEL28 cells. Cells were treated for 72 hours and cell viability was determined according to the manufacturer's instruction.

[2] = system: squamous cell carcinoma of head and neck cells MDA1986; experiment: MTS cell viability assay, MDA1986; conditions: Table 1, 72-hour treatment
Procedure: as §1, §2

[3] = system: squamous cell carcinoma of head and neck cells JMAR; experiment: MTS cell viability assay, JMAR
Procedure: as §1, §2

[4] = system: human carcinoid cells NCI-H727; experiment: MTS cell viability assay, NCI-H727; conditions: Table 1, NCI-H727, 72-hour treatment, read-out: IC50
Procedure: as §1, §2

MRC-5 = experiment: MTS cell viability assay, MRC-5; conditions: Homo sapiens, MRC5, Table 1, 72-hour treatment
[5] = system: DRO81-1 medullary thyroid cancer cells; experiment: MTS cell viability assay, DRO81-1; conditions: Table 1; DRO81-1; 72-hour treatment; read-out: IC50
Procedure: as §1, §2

[6] = system: TT medullary thyroid cancer cells; experiment: MTS cell viability assay, TT; conditions: Table 1, 72-hour treatment
Procedure: as §1, §2

SUP-B15 Ph+ ALL cells = experiment: MTS assay, SUP-B15
Procedure: (§3) Cell proliferation was analyzed using MTS assay and Trypan Blue exclusion. Annexin V-FITC/Propidium Iodide flow cytometry was used to analyze the induction of apoptosis in SUP-B15 cells after treatment with anolides. Cell cycle analysis was performed using propidium iodide flow cytometry. Modulation of BCR-ABL and downstream effector proteins was determined by western blot analysis. Syngery between withanolides and TKIs was evaluated using MTS viability to calculate combination indices. Apoptotic synergy was evaluated using Annexin V/PI.

normal MRC-5 fibroblasts = experiment: MTS assay, normal MRC-5 fibroblasts (Example 7); conditions: Homo sapiens, MRC5
Procedure: as §3

SUP-B15 cells [7] = experiment: Trypan blue exclusion assay, SUP-B15; conditions: 5×, 2×, 1×, 0.5×IC50
Procedure: as §3, with “Syngery” left out

SUP-B15 cells [8] = experiment: Annexin V/propidium iodide apoptosis, SUP-B15; conditions: 48 hour; approximately 10×IC50 (Withaferin A, X001), 4×IC50 (X003)
Procedure: as §3
At no concentrations was the population of cells in necrosis significant.

SUP-B15 cells [9] = experiment: Cell cycle analysis by PI flow cytometry, SUP-B15; conditions: 48 hour treatment
Procedure: as §3

SUP-B15 Ph+ALL cells = experiment: Combination with imatinib, MTS viability, SUP-B15; conditions: 16 combinations
Procedure: as §3

Structure (SMILES): CC1=C(CO)C(=O)O[C@@H]([C@@H](C)[C@H]2CC[C@H]3[C@@H]4C[C@H]5O[C@]56[C@@H](O)C=CC(=O)[C@]6(C)[C@H]4CC[C@]23C)C1 [Withaferin A, reference compound]
- IC50 (melanoma cells B16F10; B16-F10, Table 1, 72-hour treatment): 260 nM
- IC90 (melanoma cells B16F10; B16-F10, Table 2): 1230 nM
- IC50 ([1]; Table 1, 72-hour treatment): 3960 nM
- IC50 ([1]; Table 3, treated for 72 hours, NA = no activity): 3150 nM
- IC90 ([1]; SK-MEL-28, Table 2): 680 nM
- IC50 [2]: 800 nM
- IC50 ([3]; Table 1, 72-hour treatment): 2000 nM
- IC90 ([3]; Table 2): 3600 nM
- IC50 [4]: 3880 nM
- IC50 (MRC-5): 200 nM
- IC50 [5]: 1090 nM
- IC50 [6]: 1130 nM
- IC50 (SUP-B15 Ph+ ALL cells; Homo sapiens, SUP-B15): 132 nM
- Fold Difference (SUP-B15 Ph+ ALL cells; MRC-5 vs SUP-B15 IC50): 17X
- IC50 (normal MRC-5 fibroblasts): 2200 nM
- cell death at 24 hours, trypan blue exclusion (SUP-B15 cells [7]): did not cause significant cell death at 24 hours at any concentration tested
- induction of apoptosis (SUP-B15 cells [8]): almost all cells were in either late or early apoptosis
- Cell Cycle (%) G0/G1 (SUP-B15 cells [9]; 80 nM): 49.9%
- Cell Cycle (%) G2/M (SUP-B15 cells [9]; 80 nM): 27.8%
- Cell Cycle (%) S (SUP-B15 cells [9]; 80 nM): 22.2%
- Cell Cycle (%) G0/G1 (SUP-B15 cells [9]; 160 nM): 50.2%
- Cell Cycle (%) G2/M (SUP-B15 cells [9]; 160 nM): 28.4%
- Cell Cycle (%) S (SUP-B15 cells [9]; 160 nM): 21.4%
- Cell Cycle (%) G0/G1 (SUP-B15 cells [9]; 320 nM): 38.4%
- Cell Cycle (%) G2/M (SUP-B15 cells [9]; 320 nM): 46.8%
- Cell Cycle (%) S (SUP-B15 cells [9]; 320 nM): 14.8%
- Cell Cycle (%) G0/G1 (SUP-B15 cells [9]; 640 nM): 23.7%
- Cell Cycle (%) G2/M (SUP-B15 cells [9]; 640 nM): 71%
- Cell Cycle (%) S (SUP-B15 cells [9]; 640 nM): 5.3%
- Cell Cycle (%) G0/G1 (SUP-B15 cells [9]; 1280 nM): 47.1%
- Cell Cycle (%) G2/M (SUP-B15 cells [9]; 1280 nM): 34.3%
- Cell Cycle (%) S (SUP-B15 cells [9]; 1280 nM): 18.6%
- combination index (CI) with imatinib (SUP-B15 Ph+ALL cells; 0.25×-1×IC50 of each drug): 1.3
- synergy with imatinib (SUP-B15 Ph+ALL cells): only showed synergy at three of the concentrations tested
